{"source": "patent US4455290A", "about": "“Inhibition of fibrin polymerization by a peptide isolated from fibrin Fragment D1” (Research Corporation, priority 1981, dated 1984)", "key": {"[1]": {"molecular_target": "T1, batroxobin fibrin monomer (Homo sapiens, UniProt P02671+P02675+P02679)", "T1 construct": "fibrin monomer which was formed by batroxobin (lacking fibrinopeptide A); made in house; host or cells: not recombinant: made from fibrinogen by treatment with batroxobin (Bothrops atrox venom enzyme)", "T1 sequence (P02671 36-629 isoform P02671-2)": "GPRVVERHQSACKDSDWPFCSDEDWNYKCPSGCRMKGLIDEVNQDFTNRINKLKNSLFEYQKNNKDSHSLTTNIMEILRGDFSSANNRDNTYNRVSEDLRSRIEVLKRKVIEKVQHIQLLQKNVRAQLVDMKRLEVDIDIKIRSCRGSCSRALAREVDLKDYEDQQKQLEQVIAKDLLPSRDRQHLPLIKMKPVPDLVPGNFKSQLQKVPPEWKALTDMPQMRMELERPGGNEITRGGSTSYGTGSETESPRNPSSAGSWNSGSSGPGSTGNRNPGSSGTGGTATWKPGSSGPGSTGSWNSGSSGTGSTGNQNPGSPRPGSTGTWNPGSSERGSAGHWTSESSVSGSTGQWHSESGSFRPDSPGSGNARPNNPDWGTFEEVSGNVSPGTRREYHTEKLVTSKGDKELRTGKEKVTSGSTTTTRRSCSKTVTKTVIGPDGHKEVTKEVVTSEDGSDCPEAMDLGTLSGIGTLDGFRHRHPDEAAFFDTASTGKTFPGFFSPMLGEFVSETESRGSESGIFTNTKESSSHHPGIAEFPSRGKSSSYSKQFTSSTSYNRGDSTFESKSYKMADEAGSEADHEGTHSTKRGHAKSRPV", "T1 sequence (P02675 31-491)": "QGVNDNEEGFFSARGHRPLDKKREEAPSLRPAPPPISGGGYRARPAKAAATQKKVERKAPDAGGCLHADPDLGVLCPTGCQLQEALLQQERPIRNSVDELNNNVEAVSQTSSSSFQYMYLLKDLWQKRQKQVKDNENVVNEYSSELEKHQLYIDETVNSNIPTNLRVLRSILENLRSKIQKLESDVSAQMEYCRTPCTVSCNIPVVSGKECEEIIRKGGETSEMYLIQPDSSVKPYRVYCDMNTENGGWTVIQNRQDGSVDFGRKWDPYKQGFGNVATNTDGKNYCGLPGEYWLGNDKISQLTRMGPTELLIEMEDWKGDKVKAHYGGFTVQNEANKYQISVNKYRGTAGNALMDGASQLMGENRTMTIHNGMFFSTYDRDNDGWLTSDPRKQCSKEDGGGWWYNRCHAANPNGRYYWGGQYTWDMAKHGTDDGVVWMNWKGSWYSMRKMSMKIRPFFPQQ", "T1 sequence (P02679 27-437 isoform P02679-2)": "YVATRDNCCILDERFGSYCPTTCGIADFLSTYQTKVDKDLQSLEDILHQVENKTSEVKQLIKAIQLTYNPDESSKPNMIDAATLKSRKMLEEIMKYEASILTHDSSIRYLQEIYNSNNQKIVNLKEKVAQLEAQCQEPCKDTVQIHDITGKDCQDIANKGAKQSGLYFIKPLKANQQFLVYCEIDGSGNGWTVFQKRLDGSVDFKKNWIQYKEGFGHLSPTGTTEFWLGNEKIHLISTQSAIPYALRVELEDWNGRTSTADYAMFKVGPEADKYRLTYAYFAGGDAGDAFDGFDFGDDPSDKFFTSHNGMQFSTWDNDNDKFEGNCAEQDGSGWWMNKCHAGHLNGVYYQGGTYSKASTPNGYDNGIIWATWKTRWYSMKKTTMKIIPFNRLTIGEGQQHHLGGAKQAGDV", "experiment": "Inhibition of fibrin monomer polymerization (absorbance at 350 nm), batroxobin fibrin monomer", "assay_type": "biochemical", "experimental": "Fibrin monomer was prepared according to the method of Belitser et al, Biochem. Biophys. Acta 154, 367-375 (1968) using either thrombin or batroxobin (an enzyme from the venom of Bothrops atrox). The polymerization of fibrin monomer which was formed by batroxobin (lacking fibrinopeptide A) or by thrombin (lacking fibrinopeptides A and B) was inhibited by D1 Peptide. Polymerization was measured spectrophotometrically at 350 nm as has been described in Budzynski, Biochem. Biophys. Acta 584, 284-287 (1979). […] At zero time the recorder was started and 0.01 ml of fibrin monomer (1.5 mg/ml in 0.02M acetic acid) was added, the cells were inverted, and the increase in absorbance at 350 nm was measured continuously for 15 min or until plateau levels were reached. For batroxobin fibrin monomer 0.15 ml of buffer or buffer containing D1 Peptide was mixed with 0.05 ml of batroxobin fibrin monomer (1.5 mg/ml in 0.02M acetic acid). The initial rate of polymerization was calculated from the slope of the steepest part of the curve and expressed as the increase in absorbance per min (A350 ·min^-1).\nIn order to assess the effect of D1 Peptide on fibrin monomer polymerization over a wide range of concentrations, batroxobin fibrin monomer concentration was varied from 3.3×10^-8 M to 1.75×10^-7 M and the maximum rate of polymerization measured in the absence or presence of 2.5×10^-7 M D1 Peptide (FIG. 5). […]"}, "[2]": {"tested_on": "thrombin time", "experiment": "Thrombin time test", "settings": "stated as 'could be caused'; no experiment described"}}, "note": "Peptide text beside a SMILES is read from it.", "data": [{"smiles": "CC[C@H](C)[C@H](NC(=O)[C@H](CCCCN)NC(=O)[C@H](CCSC)NC(=O)[C@@H](NC(=O)[C@@H](NC(=O)[C@H](CCCCN)NC(=O)[C@H](CCCCN)NC(=O)[C@H](CCSC)NC(=O)[C@H](CO)NC(=O)[C@H](Cc1ccc(O)cc1)NC(=O)[C@H](Cc1c[nH]c2ccccc12)NC(=O)[C@H](CCCNC(=N)N)NC(=O)[C@@H](N)[C@@H](C)O)[C@@H](C)O)[C@@H](C)O)C(=O)N[C@H](C(=O)N1CCC[C@H]1C(=O)N[C@@H](Cc1ccccc1)C(=O)N[C@@H](CC(N)=O)C(=O)N[C@@H](CCCNC(=N)N)C(=O)N[C@@H](CC(C)C)C(=O)N[C@H](C(=O)N[C@H](C(=O)NCC(=O)N[C@@H](CCC(=O)O)C(=O)NCC(=O)N[C@@H](CCC(N)=O)C(=O)N[C@@H](CCC(N)=O)C(=O)N[C@@H](Cc1c[nH]cn1)C(=O)N[C@@H](Cc1c[nH]cn1)C(=O)N[C@@H](CC(C)C)C(=O)NCC(=O)NCC(=O)N[C@@H](C)C(=O)N[C@@H](CCCCN)C(=O)N[C@@H](CCC(N)=O)C(=O)N[C@@H](C)C(=O)NCC(=O)N[C@@H](CC(=O)O)C(=O)N[C@H](C(=O)O)C(C)C)[C@@H](C)CC)[C@@H](C)O)[C@@H](C)CC", "note": "[D1 Peptide] (H-TRWYSMKKTTMKIIPFNRLTIGEGQQHHLGGAKQAGDV-OH)", "values": [{"measurement": "mode of inhibition of polymerization", "setting": "[1]; batroxobin fibrin monomer 3.3×10^-8 M to 1.75×10^-7 M", "value": "competitive inhibitor"}, {"measurement": "concentration of fibrin monomer necessary to achieve the same rate of polymerization (apparent [FM])", "setting": "[1]; maximum rate 0.2 A350·min^-1, D1 Peptide 2.6×10^-7 M, 7.8×10^-8 M without peptide", "value": 142, "unit": "nM"}, {"measurement": "blood concentration causing a 50% increase in thrombin time", "setting": "[2]", "value": "about 4.4×10^-6 M"}]}]}
